# Legend:
# [1] = system: abdominal skins of female C57BL/6 mice; experiment: TPA-induced vascular permeability assay (Evans blue extravasation); type: in vivo, mouse; settings: Evans blue OD 620 nm
# Description: TPA-induced vascular permeability assay was modified and performed as previously described (Thurston G, Suri C, Smith K, McClain J, Sato T N, Yancopoulos G D, McDonald D M. Science 1999, 286:2511-2514). Shaved abdominal skins of female C57BL/6JNarl mice were topically treated with vehicle (acetone, 200 μl/site) or TPA (10 nmol in 200 μl acetone/site) for 6 h or treated with TPA for 10 min and subsequently treated for 6 h with the indicated concentrations of BrD1. Abdominal skins of untreated mice were used as the control group. One percent Evans blue dye (100 μl) was injected into mouse tail veins. After 20 min, anatomical appearances of mouse abdomens from the various treatments were photographically recorded. Abdominal skins representative of each test group were removed, turned over and photographed. Evans blue dye extravasated into the skins was extracted by incubation of the skin samples in 99% N,N-dimethyl-formamide overnight at 60° C. and optical density was measured at 620 nm.
# Acute inflammatory reactions are known to include changes in vascular permeability, edema and cellular infiltration (Rao T S, Currie J L, Shaffer A F, Isakson P C. Inflammation 1993, 17:723-741). In order to evaluate the anti-inflammatory effect of BrD1 on TPA-induced dermatitis in a murine model, we initially evaluated the possible inhibitory effect of BrD1 on TPA-induced vascular permeability. […]
# IκBα = experiment: TPA-stimulated IκBα phosphorylation in mouse skin, western blot; type: in vivo; settings: topical for 2 h after TPA
# Description: Shaven abdominal skins of female C57BL/6JNarl mice were not treated or topically treated with vehicle (acetone, 200 μl/site) or TPA (10 nmol in 200 μl acetone/site) at indicated time points or treated first with TPA for 10 min, then with the indicated concentrations of BrD1 at the indicated time points. Abdominal skin samples were collected, homogenated and lysed to prepare total proteins. Protein samples were subsequently resolved by SDS-PAGE using a gradient gel. The resolved proteins were transferred to a PVDF Immobilon-P membrane (Millipore, Bedford, Calif.), and the membrane was blocked with 5% non-fat dry milk in PBST buffer (phosphate-buffered saline (PBS) containing 0.1% Tween 20) for 60 minutes at room temperature. The membranes were incubated overnight at 4° C. with commercially available antibodies (1:1000 dilutions). Loading of equal amounts of protein was assessed using mouse β-actin. The blots were rinsed three times with PBST buffer for 5 minutes. Washed blots were incubated with HRP-conjugated secondary antibody (1:100,000 dilution), then washed again three times with PBST buffer. […] Quantification of bands was performed using Image J software.
# We therefore evaluated whether BrD1 could interfere with TPA-induced activation of Akt and Erk in inflamed skin. […] We thus determined the phosphorylation level of Akt, Erk, NF-κB and IκBα in skins subjected to different treatments. […]
smiles,measurement,setting,value
"CCCC(=O)O[C@H]1C/C(C)=C\[C@@H]2OC(=O)[C@]3(C)O[C@]23[C@@H](OC(C)=O)[C@H]2[C@@H](C)[C@@H](O)C[C@H](OC(C)=O)[C@]2(C)[C@H]1OC(C)=O [BrD1, excavatolide B]",level of inhibition of TPA-induced vascular permeability,[1]; 0.5 mg/site topical for 6 h after TPA (10 nmol) 10 min,approximately 58%
same,level of inhibition of TPA-induced vascular permeability,[1]; 1 mg/site topical for 6 h after TPA (10 nmol) 10 min,~77%
same,TPA-stimulated phosphorylation of IκBα,IκBα,significantly inhibited the TPA-stimulated phosphorylation of Akt and IκBα
same,TPA-stimulated phosphorylation of IκBα,IκBα; listed as excavatolide B,significantly inhibits the TPA-stimulated phosphorylation of Akt and IκBα
